From PubChem BioAssay AID1745844 (Carcinogenic Potency Database (CPDB), 2022)
Several values for one entry are separate records, joined by “and”; a condition that tells them apart may be missing. Equal values may be shown once. Activity calls are given as the source filed them. The rule behind the calls is not given here.

System: rodent lifetime carcinogenesis bioassay, tumor incidence TD50
Assay: chronic cancer bioassays in animals – CPDB, compiled studies (AID 1745844)

## O=P(OC(CCl)CCl)(OC(CCl)CCl)OC(CCl)CCl
rat, strain Charles River CD (Sprague-Dawley), females, in feed, site: adrenal gland, lesion: cortical adenoma, dosed 104 weeks, study length 104 weeks
  TD50: 192 mg/kg/day
rat, strain Charles River CD (Sprague-Dawley), females, in feed, site: kidney, lesion: cortical adenoma, dosed 104 weeks, study length 104 weeks
  TD50: 68.6 mg/kg/day
rat, strain Charles River CD (Sprague-Dawley), females, in feed, site: liver, lesion: hepatocellular adenoma, dosed 104 weeks, study length 104 weeks
  TD50: 324 mg/kg/day
rat, strain Charles River CD (Sprague-Dawley), females, in feed, site: liver, lesion: hepatocellular carcinoma, dosed 104 weeks, study length 104 weeks
  TD50: 721 mg/kg/day
rat, strain Charles River CD (Sprague-Dawley), females, in feed, site: liver, lesion: several types, types named in the paper, dosed 104 weeks, study length 104 weeks
  TD50: 206 mg/kg/day
rat, strain Charles River CD (Sprague-Dawley), males, in feed, site: kidney, lesion: cortical adenoma, dosed 104 weeks, study length 104 weeks
  TD50: 53.1 mg/kg/day
rat, strain Charles River CD (Sprague-Dawley), males, in feed, site: liver, lesion: hepatocellular adenoma, dosed 104 weeks, study length 104 weeks
  TD50: 252 mg/kg/day
rat, strain Charles River CD (Sprague-Dawley), males, in feed, site: liver, lesion: hepatocellular carcinoma, dosed 104 weeks, study length 104 weeks
  TD50: 390 mg/kg/day
rat, strain Charles River CD (Sprague-Dawley), males, in feed, site: liver, lesion: several types, types named in the paper, dosed 104 weeks, study length 104 weeks
  TD50: 144 mg/kg/day
rat, strain Charles River CD (Sprague-Dawley), males, in feed, site: testis, lesion: interstitial-cell tumor, dosed 104 weeks, study length 104 weeks
  TD50: 35 mg/kg/day

## CCN(CC)C(=S)[S-].CCN(CC)C(=S)[S-].[Zn+2]
mouse, strain B6AKF1, females, oral dosing, site: any site (literature study), lesion: several types, types named in the paper, dosed 76 weeks, study length 76 weeks
  carcinogen call: negative (inactive)
mouse, strain B6AKF1, females, oral dosing, site: liver, lesion: hepatoma, dosed 76 weeks, study length 76 weeks
  carcinogen call: negative (inactive)
mouse, strain B6AKF1, females, oral dosing, site: lung, lesion: adenoma, dosed 76 weeks, study length 76 weeks
  carcinogen call: negative (inactive)
mouse, strain B6AKF1, males, oral dosing, site: any site (literature study), lesion: several types, types named in the paper, dosed 76 weeks, study length 76 weeks
  TD50: 86.7 mg/kg/day (inactive)
mouse, strain B6AKF1, males, oral dosing, site: liver, lesion: hepatoma, dosed 76 weeks, study length 76 weeks
  TD50: 205 mg/kg/day (inactive)
mouse, strain B6AKF1, males, oral dosing, site: lung, lesion: adenoma, dosed 76 weeks, study length 76 weeks
  carcinogen call: negative (inactive)
mouse, strain B6C3F1, females, oral dosing, site: any site (literature study), lesion: one or several types, types not named, dosed 76 weeks, study length 76 weeks
  carcinogen call: negative (inactive)
mouse, strain B6C3F1, females, oral dosing, site: liver, lesion: hepatoma, dosed 76 weeks, study length 76 weeks
  carcinogen call: negative (inactive)
mouse, strain B6C3F1, females, oral dosing, site: lung, lesion: several types, types named in the paper, dosed 76 weeks, study length 76 weeks
  carcinogen call: negative (inactive)
mouse, strain B6C3F1, males, oral dosing, site: any site (literature study), lesion: several types, types named in the paper, dosed 76 weeks, study length 76 weeks
  TD50: 28.5 mg/kg/day (inactive)
mouse, strain B6C3F1, males, oral dosing, site: liver, lesion: hepatoma, dosed 76 weeks, study length 76 weeks
  carcinogen call: negative (inactive)
mouse, strain B6C3F1, males, oral dosing, site: lung, lesion: adenoma, dosed 76 weeks, study length 76 weeks
  TD50: 46.2 mg/kg/day (inactive)

## Cc1ccc(OP(=O)(Oc2ccc(C)cc2)Oc2ccc(C)cc2)cc1
mouse, strain B6C3F1, females, in feed, site: any site (literature study), lesion: several types, types named in the paper, dosed 104 weeks, study length 105 weeks
  carcinogen call: negative (inactive)
mouse, strain B6C3F1, females, in feed, site: lung, lesion: alveolar/bronchiolar adenoma + alveolar/bronchiolar carcinoma, dosed 104 weeks, study length 105 weeks
  TD50: 2310 mg/kg/day
mouse, strain B6C3F1, males, in feed, site: Harderian gland, lesion: adenoma, dosed 104 weeks, study length 105 weeks
  TD50: 184 mg/kg/day (inactive)
mouse, strain B6C3F1, males, in feed, site: any site (literature study), lesion: several types, types named in the paper, dosed 104 weeks, study length 105 weeks
  TD50: 159 mg/kg/day
mouse, strain B6C3F1, males, in feed, site: liver, lesion: hepatocellular adenoma + hepatoblastoma + hepatocellular carcinoma, dosed 104 weeks, study length 105 weeks
  TD50: 968 mg/kg/day
mouse, strain B6C3F1, males, in feed, site: lung, lesion: alveolar/bronchiolar adenoma + alveolar/bronchiolar carcinoma, dosed 104 weeks, study length 105 weeks
  TD50: 187 mg/kg/day
rat, strain Fischer 344, females, in feed, site: all sites, lesion: mononuclear-cell leukemia, dosed 104 weeks, study length 104 weeks
  TD50: 35 mg/kg/day (inactive)
rat, strain Fischer 344, females, in feed, site: any site (literature study), lesion: several types, types named in the paper, dosed 104 weeks, study length 104 weeks
  TD50: 21.6 mg/kg/day
rat, strain Fischer 344, males, in feed, site: any site (literature study), lesion: several types, types named in the paper, dosed 104 weeks, study length 104 weeks
  carcinogen call: negative (inactive)
rat, strain Fischer 344, males, in feed, site: liver, lesion: hepatocellular adenoma + hepatoblastoma + hepatocellular carcinoma, dosed 104 weeks, study length 104 weeks
  TD50: 143 mg/kg/day

## CN(N=O)C(N)=O
monkey, strain Cynomolgus [Macaca fascicularis], both sexes, in feed, site: any site (literature study), lesion: benign tumor, dosed 928 weeks, study length 1135 weeks
  TD50: 19.1 mg/kg/day
monkey, strain Cynomolgus [Macaca fascicularis], both sexes, in feed, site: any site (literature study), lesion: malignant tumor, dosed 928 weeks, study length 1135 weeks
  TD50: 4 mg/kg/day
monkey, strain Cynomolgus [Macaca fascicularis], both sexes, in feed, site: any site (literature study), lesion: several types, types named in the paper, dosed 928 weeks, study length 1135 weeks
  TD50: 2.64 mg/kg/day
monkey, strain Cynomolgus [Macaca fascicularis], both sexes, in feed, site: colon, lesion: leiomyosarcoma, dosed 928 weeks, study length 1135 weeks
  TD50: 34.5 mg/kg/day
monkey, strain Cynomolgus [Macaca fascicularis], both sexes, in feed, site: esophagus, lesion: several types, types named in the paper, dosed 928 weeks, study length 1135 weeks
  TD50: 7.71 mg/kg/day
monkey, strain Cynomolgus [Macaca fascicularis], both sexes, in feed, site: esophagus, lesion: squamous-cell carcinoma, dosed 928 weeks, study length 1135 weeks
  TD50: 10.5 mg/kg/day
monkey, strain Cynomolgus [Macaca fascicularis], both sexes, in feed, site: esophagus, lesion: squamous-cell papilloma, dosed 928 weeks, study length 1135 weeks
  TD50: 29.2 mg/kg/day
monkey, strain Cynomolgus [Macaca fascicularis], both sexes, in feed, site: heart, lesion: rhabdomyoblastoma, dosed 928 weeks, study length 1135 weeks
  TD50: 66.3 mg/kg/day
monkey, strain Cynomolgus [Macaca fascicularis], both sexes, in feed, site: oral cavity, lesion: several types, types named in the paper, dosed 928 weeks, study length 1135 weeks
  TD50: 2.65 mg/kg/day
monkey, strain Cynomolgus [Macaca fascicularis], both sexes, in feed, site: palate, soft, lesion: squamous-cell carcinoma, dosed 928 weeks, study length 1135 weeks
  TD50: 7.95 mg/kg/day
monkey, strain Cynomolgus [Macaca fascicularis], both sexes, in feed, site: pharynx, lesion: squamous-cell carcinoma, dosed 928 weeks, study length 1135 weeks
  TD50: 82.2 mg/kg/day
monkey, strain Cynomolgus [Macaca fascicularis], both sexes, in feed, site: skull, lesion: rhabdomyosarcoma, dosed 928 weeks, study length 1135 weeks
  TD50: 23.9 mg/kg/day
monkey, strain Cynomolgus [Macaca fascicularis], both sexes, in feed, site: stomach, lesion: adenocarcinoma, dosed 928 weeks, study length 1135 weeks
  TD50: 66.3 mg/kg/day
monkey, strain Cynomolgus [Macaca fascicularis], both sexes, in feed, site: tongue, lesion: squamous-cell papilloma, dosed 928 weeks, study length 1135 weeks
  TD50: 7.95 mg/kg/day
monkey, strain Cynomolgus [Macaca fascicularis], both sexes, in feed, site: upper gastrointestinal tract, lesion: squamous-cell carcinoma, dosed 928 weeks, study length 1135 weeks
  TD50: 4.52 mg/kg/day
monkey, strain Rhesus [Macaca mulatta], both sexes, in feed, site: any site (literature study), lesion: malignant tumor, dosed 928 weeks, study length 1139 weeks
  TD50: 6.75 mg/kg/day
monkey, strain Rhesus [Macaca mulatta], both sexes, in feed, site: cheek pouch, lesion: squamous-cell carcinoma, dosed 928 weeks, study length 1139 weeks
  TD50: 95.6 mg/kg/day
monkey, strain Rhesus [Macaca mulatta], both sexes, in feed, site: epiglottis, lesion: squamous-cell carcinoma, dosed 928 weeks, study length 1139 weeks
  TD50: 42.8 mg/kg/day
monkey, strain Rhesus [Macaca mulatta], both sexes, in feed, site: esophagus, lesion: squamous-cell carcinoma, dosed 928 weeks, study length 1139 weeks
  TD50: 8.2 mg/kg/day
monkey, strain Rhesus [Macaca mulatta], both sexes, in feed, site: gingiva, lesion: squamous-cell carcinoma, dosed 928 weeks, study length 1139 weeks
  TD50: 62.6 mg/kg/day
monkey, strain Rhesus [Macaca mulatta], both sexes, in feed, site: larynx, lesion: squamous-cell carcinoma, dosed 928 weeks, study length 1139 weeks
  TD50: 95.6 mg/kg/day
monkey, strain Rhesus [Macaca mulatta], both sexes, in feed, site: oral cavity, lesion: several types, types named in the paper, dosed 928 weeks, study length 1139 weeks
  TD50: 15.7 mg/kg/day
monkey, strain Rhesus [Macaca mulatta], both sexes, in feed, site: palate, soft, lesion: squamous-cell carcinoma, dosed 928 weeks, study length 1139 weeks
  TD50: 102 mg/kg/day
monkey, strain Rhesus [Macaca mulatta], both sexes, in feed, site: pharynx, lesion: squamous-cell carcinoma, dosed 928 weeks, study length 1139 weeks
  TD50: 44.2 mg/kg/day
monkey, strain Rhesus [Macaca mulatta], both sexes, in feed, site: stomach, lesion: adenocarcinoma, dosed 928 weeks, study length 1139 weeks
  TD50: 42.8 mg/kg/day
monkey, strain Rhesus [Macaca mulatta], both sexes, in feed, site: tongue, lesion: squamous-cell carcinoma, dosed 928 weeks, study length 1139 weeks
  TD50: 72.9 mg/kg/day
monkey, strain Rhesus [Macaca mulatta], both sexes, in feed, site: upper gastrointestinal tract, lesion: squamous-cell carcinoma, dosed 928 weeks, study length 1139 weeks
  TD50: 7.18 mg/kg/day
mouse, strain C3H (MTV+), males, in drinking water, site: liver, lesion: neoplastic nodule, dosed 30 weeks, study length 54 weeks
  TD50: 2.53 mg/kg/day
mouse, strain C3H (MTV+), males, in drinking water, site: lung, lesion: adenoma, dosed 30 weeks, study length 54 weeks
  TD50: 0.794 mg/kg/day
mouse, strain C3H (MTV+), males, in drinking water, site: spleen, lesion: hemangioendothelial sarcoma, dosed 30 weeks, study length 54 weeks
  TD50: 1.23 mg/kg/day
mouse, strain C3H (MTV+), males, in drinking water, site: stomach, glandular, lesion: adenocarcinoma, dosed 30 weeks, study length 54 weeks
  TD50: 6.19 mg/kg/day
rat, strain Fischer 344, males, by gavage, site: forestomach, lesion: one or several types, types not named, dosed 28 weeks, study length 104 weeks
  TD50: 0.0927 mg/kg/day
rat, strain Fischer 344, males, by gavage, site: liver, lesion: one or several types, types not named, dosed 28 weeks, study length 104 weeks
  TD50: 11.6 mg/kg/day
rat, strain Fischer 344, males, by gavage, site: lung, lesion: several types, types named in the paper, dosed 28 weeks, study length 104 weeks
  TD50: 0.357 mg/kg/day
rat, strain Fischer 344, males, by gavage, site: nervous system, lesion: several types, types named in the paper, dosed 28 weeks, study length 104 weeks
  TD50: 2.03 mg/kg/day

## COC(=O)c1ccc(C(=O)OC)cc1
mouse, strain B6C3F1, females, in feed, site: any site (literature study), lesion: several types, types named in the paper, dosed 103 weeks, study length 105 weeks
  TD50: 4340 mg/kg/day (inactive)
mouse, strain B6C3F1, females, in feed, site: lung, lesion: alveolar/bronchiolar adenoma + alveolar/bronchiolar carcinoma, dosed 103 weeks, study length 105 weeks
  TD50: 44000 mg/kg/day
mouse, strain B6C3F1, males, in feed, site: lung, lesion: alveolar/bronchiolar adenoma + alveolar/bronchiolar carcinoma, dosed 103 weeks, study length 104 weeks
  TD50: 1160 mg/kg/day (inactive) and 1160 mg/kg/day
rat, strain Fischer 344, females, in feed, site: any site (literature study), lesion: several types, types named in the paper, dosed 103 weeks, study length 105 weeks
  TD50: 342 mg/kg/day (inactive)
rat, strain Fischer 344, males, in feed, site: any site (literature study), lesion: several types, types named in the paper, dosed 103 weeks, study length 105 weeks
  carcinogen call: negative (inactive)
